According to US10981926B2 (Janssen Pharmaceutica NV, priority 2016, dated 2021):

Assays:
Format in all cases: cell-based
[1] = target: T1, F876L mutant Androgen Receptor (AR-F876L) (Homo sapiens (Human), UniProt P10275, F877L); test: LNCaP-AR-F876L AG reporter assay (agonist mode); conditions: for EC50: agonist mode, pEC50 = −Log10(EC50 in Molar), read-out: LNCaP-AR-F876L AG pEC50 (converted); for Emax: maximum % stimulation (agonist response) over the tested concentration range, read-out: LNCaP-AR-F876L AG MAX % Stim
T1 sequence (P10275 whole entry F877L): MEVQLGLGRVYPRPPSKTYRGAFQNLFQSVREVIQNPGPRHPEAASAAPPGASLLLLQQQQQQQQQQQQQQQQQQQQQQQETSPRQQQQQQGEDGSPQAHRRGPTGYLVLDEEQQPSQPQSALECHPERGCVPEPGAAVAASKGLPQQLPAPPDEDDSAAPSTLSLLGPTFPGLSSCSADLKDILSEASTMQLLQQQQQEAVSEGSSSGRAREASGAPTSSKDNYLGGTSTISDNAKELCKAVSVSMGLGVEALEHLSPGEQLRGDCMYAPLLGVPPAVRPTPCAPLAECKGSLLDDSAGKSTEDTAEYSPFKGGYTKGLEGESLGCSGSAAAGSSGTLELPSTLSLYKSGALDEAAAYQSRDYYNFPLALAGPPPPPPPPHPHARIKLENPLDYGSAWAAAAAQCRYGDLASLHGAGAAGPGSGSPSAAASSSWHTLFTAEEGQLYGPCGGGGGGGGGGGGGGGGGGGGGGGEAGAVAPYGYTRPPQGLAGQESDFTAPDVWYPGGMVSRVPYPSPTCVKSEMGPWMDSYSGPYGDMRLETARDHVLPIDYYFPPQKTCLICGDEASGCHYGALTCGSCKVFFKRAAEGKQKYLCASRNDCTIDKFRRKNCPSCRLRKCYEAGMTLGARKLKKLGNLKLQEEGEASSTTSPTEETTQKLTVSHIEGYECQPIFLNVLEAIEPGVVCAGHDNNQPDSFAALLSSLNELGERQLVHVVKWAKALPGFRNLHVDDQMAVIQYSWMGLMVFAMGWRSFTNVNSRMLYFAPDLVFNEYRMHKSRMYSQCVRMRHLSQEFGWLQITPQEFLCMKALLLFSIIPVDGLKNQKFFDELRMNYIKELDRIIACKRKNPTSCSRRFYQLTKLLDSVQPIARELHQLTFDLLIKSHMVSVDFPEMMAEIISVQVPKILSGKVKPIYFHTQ

[2] = target: T2, wild-type Androgen Receptor (AR-wt) (Homo sapiens (Human), UniProt P10275); test: LNCaP-AR-wt ANT reporter assay (antagonist mode); conditions: for IC50: antagonist mode, pIC50 = −Log10(IC50 in Molar), read-out: LNCaP-AR-wt ANT pIC50 (converted); for Emax: maximum % inhibition of R1881 control response over the tested concentration range, read-out: LNCaP-AR-wt ANT MAX % Inh
T2 sequence (P10275 whole entry): as the sequence (P10275 whole entry F877L) above, with L877F counted along it

[3] = target: T1, F876L mutant Androgen Receptor (AR-F876L); test: LNCaP-AR-F876L ANT reporter assay (antagonist mode); conditions: for IC50: antagonist mode, pIC50 = −Log10(IC50 in Molar), read-out: LNCaP-AR-F876L ANT pIC50 (converted); for Emax: maximum % inhibition of R1881 control response over the tested concentration range, read-out: LNCaP-AR-F876L ANT MAX % Inh
[4] = target: T2, wild-type Androgen Receptor (AR-wt); test: LNCaP-AR-wt AG reporter assay (agonist mode); conditions: for EC50: agonist mode, pEC50 = −Log10(EC50 in Molar), read-out: LNCaP-AR-wt AG pEC50 (converted); for Emax: maximum % stimulation (agonist response) over the tested concentration range, read-out: LNCaP-AR-wt AG MAX % Stim

SMILES	EC50 [1] [µM]	Emax [1] [%]	IC50 [2] [nM]	Emax [2] [%]	IC50 [3] [nM]	Emax [3] [%]	EC50 [4] [µM]	Emax [4] [%]
CC1(Oc2ccc(N3C(=S)N(c4cnc(C#N)c(C(F)(F)F)c4)C(=O)C34CCC4)cc2)CCNCC1 [Cpd 140, 5-[8-[4-[(4-methyl-4-piperidyl)oxy]phenyl]-5-oxo-7-thioxo-6,8-diazaspiro[3.4]octan-6-yl]-3-(trifluoromethyl)pyridine-2-carbonitrile]	> 15.1	0	1000	99.9	339	99.5	> 15.1	0.3
CN1CCC(C)(Oc2ccc(N3C(=S)N(c4cnc(C#N)c(C(F)(F)F)c4)C(=O)C34CCC4)cc2)CC1 [Cpd 143, 5-[8-[4-[(1,4-dimethyl-4-piperidyl)oxy]phenyl]-5-oxo-7-thioxo-6,8-diazaspiro[3.4]octan-6-yl]-3-(trifluoromethyl)pyridine-2-carbonitrile]	> 15.1	0.4	1350	103	355	101	> 15.1	-0.2
N#Cc1ncc(N2C(=O)C3(CCC3)N(c3ccc(OCC4(N)COC4)cc3)C2=S)cc1C(F)(F)F [Cpd 145, 5-[8-[4-[(3-aminooxetan-3-yl)methoxy]phenyl]-5-oxo-7-thioxo-6,8-diazaspiro[3.4]octan-6-yl]-3-(trifluoromethyl)pyridine-2-carbonitrile]	> 15.1	1.8	178	101	302	98.8	> 15.1	0.5
CN1CC2CCC(C1)C2Oc1ccc(N2C(=S)N(c3cnc(C#N)c(C(F)(F)F)c3)C(=O)C23CCC3)cn1 (stereo not shown) [Cpd 147, 5-[8-[6-[(3-methyl-3-azabicyclo[3.2.1]octan-8-yl)oxy]-3-pyridyl]-5-oxo-7-thioxo-6,8-diazaspiro[3.4]octan-6-yl]-3-(trifluoromethyl)pyridine-2-carbonitrile]	> 15.1	-0.1	224	102	209	101	> 15.1	-0.1
CC(C)(C)OC(=O)N1CCC12CC(Oc1ccc(N3C(=S)N(c4cnc(C#N)c(C(F)(F)F)c4)C(=O)C34CCC4)cn1)C2 (stereo not shown) [Cpd 153, tert-butyl 6-[[5-[6-[6-cyano-5-(trifluoromethyl)-3-pyridyl]-5-oxo-7-thioxo-6,8-diazaspiro[3.4]octan-8-yl]-2-pyridyl]oxy]-3-azaspiro[3.3]heptane-3-carboxylate]	> 15.1	-0.1	398	101	339	100	> 15.1	0.1
N#Cc1ncc(N2C(=O)C3(CCC3)N(c3ccc4[nH]ncc4c3)C2=S)cc1Cl [Cpd 155, 3-chloro-5-[8-(1H-indazol-5-yl)-5-oxo-7-thioxo-6,8-diazaspiro[3.4]octan-6-yl]pyridine-2-carbonitrile]	> 15.1	2.6	302	97.4	219	98	> 15.1	1.1
N#Cc1ncc(N2C(=O)C3(CCC3)N(c3ccc(OC4CCN5CCCC5C4)cc3)C2=S)cc1C(F)(F)F (stereo not shown) [Cpd 156, 5-[8-[4-(1,2,3,5,6,7,8,8a-octahydroindolizin-7-yloxy)phenyl]-5-oxo-7-thioxo-6,8-diazaspiro[3.4]octan-6-yl]-3-(trifluoromethyl)pyridine-2-carbonitrile]	> 15.1	0.9	282	100	178	101	> 15.1	1
N#Cc1ncc(N2C(=O)C3(CCC3)N(c3ccc(OC4CCN(CC(O)CN)CC4)cc3)C2=S)cc1C(F)(F)F (stereo not shown) [Cpd 157, 5-[8-[4-[[1-(3-amino-2-hydroxy-propyl)-4-piperidyl]oxy]phenyl]-5-oxo-7-thioxo-6,8-diazaspiro[3.4]octan-6-yl]-3-(trifluoromethyl)pyridine-2-carbonitrile]	> 15.1	0	724	102	501	99.8	> 15.1	-0.2
N#Cc1ncc(N2C(=O)C3(CCC3)N(c3ccc4c(cnn4CCO)c3)C2=S)cc1C(F)(F)F [Cpd 159, 5-[8-[1-(2-hydroxyethyl)indazol-5-yl]-5-oxo-7-thioxo-6,8-diazaspiro[3.4]octan-6-yl]-3-(trifluoromethyl)pyridine-2-carbonitrile]	> 15.1	0.2	1350	100	309	100	> 15.1	0.2
COCCn1ncc2ccc(N3C(=S)N(c4cnc(C#N)c(C(F)(F)F)c4)C(=O)C34CCC4)cc21 [Cpd 160, 5-[8-[1-(2-methoxyethyl)indazol-6-yl]-5-oxo-7-thioxo-6,8-diazaspiro[3.4]octan-6-yl]-3-(trifluoromethyl)pyridine-2-carbonitrile]	> 15.1	0	1230	103	708	101	> 15.1	0.1
N#Cc1ncc(N2C(=O)C3(CCC3)N(c3ccc4c(cnn4CCO)c3)C2=S)cc1Cl [Cpd 163, 3-chloro-5-[8-[1-(2-hydroxyethyl)indazol-5-yl]-5-oxo-7-thioxo-6,8-diazaspiro[3.4]octan-6-yl]pyridine-2-carbonitrile]	> 15.1	0.1	724	100	288	99.3	> 15.1	0.4
COc1cc(N2C(=O)C3(CCC3)N(c3ccc4nn(CCO)cc4c3)C2=S)cnc1C#N [Cpd 164, 5-[8-[2-(2-hydroxyethyl)indazol-5-yl]-5-oxo-7-thioxo-6,8-diazaspiro[3.4]octan-6-yl]-3-methoxy-pyridine-2-carbonitrile]	> 15.1	0	537	102	295	101	> 15.1	0.3

Further lines, results first:

EC50 [1] [µM]	Emax [1] [%]	IC50 [2] [nM]	Emax [2] [%]	IC50 [3] [nM]	Emax [3] [%]	EC50 [4] [µM]	Emax [4] [%]	SMILES
> 15.1	0.8	112	101	117	99	> 15.1	-0.2	CN1CC(CCOc2ccc(N3C(=S)N(c4cnc(C#N)c(C(F)(F)F)c4)C(=O)C34CCC4)cc2)C1 [Cpd 142, 5-[8-[4-[2-(1-methylazetidin-3-yl)ethoxy]phenyl]-5-oxo-7-thioxo-6,8-diazaspiro[3.4]octan-6-yl]-3-(trifluoromethyl)pyridine-2-carbonitrile]
> 15.1	-0.1	100	103	61.7	101	> 15.1	0.1	CN1CC2CCC(C1)C2Oc1ccc(N2C(=S)N(c3cnc(C#N)c(C(F)(F)F)c3)C(=O)C23CCC3)cc1 (stereo not shown) [Cpd 146, 5-[8-[4-[(3-methyl-3-azabicyclo[3.2.1]octan-8-yl)oxy]phenyl]-5-oxo-7-thioxo-6,8-diazaspiro[3.4]octan-6-yl]-3-(trifluoromethyl)pyridine-2-carbonitrile]
> 15.1	-0.2	490	102	245	103	> 15.1	0.4	N#Cc1ncc(N2C(=O)C3(CCC3)N(c3ccc(OC4CC5CC4CN5)cc3)C2=S)cc1C(F)(F)F [Cpd 150, (R,S)-5-[8-[4-(2-azabicyclo[2.2.1]heptan-5-yloxy)phenyl]-5-oxo-7-thioxo-6,8-diazaspiro[3.4]octan-6-yl]-3-(trifluoromethyl)pyridine-2-carbonitrile]
> 15.1	0	324	101	316	100	> 15.1	0.2	N#Cc1ncc(N2C(=O)C3(CCC3)N(c3ccc(OC4CC5CC4CN5)nc3)C2=S)cc1C(F)(F)F [Cpd 165, (R,S)-5-[8-[6-(2-azabicyclo[2.2.1]heptan-5-yloxy)-3-pyridyl]-5-oxo-7-thioxo-6,8-diazaspiro[3.4]octan-6-yl]-3-(trifluoromethyl)pyridine-2-carbonitrile]
> 15.1	0.1	331	102	200	101	> 15.1	0.2	CN1CCC12CC(Oc1ccc(N3C(=S)N(c4cnc(C#N)c(C(F)(F)F)c4)C(=O)C34CCC4)cc1)C2 (stereo not shown) [Cpd 166, 5-[8-[4-[(3-methyl-3-azaspiro[3.3]heptan-6-yl)oxy]phenyl]-5-oxo-7-thioxo-6,8-diazaspiro[3.4]octan-6-yl]-3-(trifluoromethyl)pyridine-2-carbonitrile]
